What was measured:
Type in all cases: cell-based
[1] = tested on: HCV replicon NK5.1-Gluc (genotype 1b); assay: Anti-HCV activity using HCV replicon NK5.1-Gluc (genotype 1b) in Huh 7.5.1 cells, luciferase readout; conditions: Hepatitis C virus, 72 h; Huh 7.5.1 cells with NK5.1-Gluc replicon, 3 days, Gaussia luciferase; read-out: HCV wt. GT-1b
[2] = tested on: JFH5a-Rluc-ad34 virus (HCV GT-2a); assay: Anti-HCV activity using HCVcc (JFH5a-Rluc-ad34 virus) in Huh 7.5.1 cells, Renilla luciferase readout; conditions: Hepatitis C virus, GT2A, Huh-7.5.1, 72 h, read-out: HCV wt. GT-2a
Method: <Experimental Example 1> Measurement of Anti-HCV Activity of Compounds of Examples Using HCVcc
Step 1: Cell Line and Cell Culture
Huh 7.5.1 cells were grown in Dulbecco's Modified Eagle's medium (DMEM; Gibco) supplemented with antibiotics (100 U/mL penicillin, 10 μg/mL streptomycin) and 10% heat-inactivated fetal bovine serum (ΔFBS; PEAK) in a CO2 incubator at 37° C. with […].
Huh7.5.1 cells were transfected with in vitro transcription RNA of JFH5a-Rluc-ad34, a derivative of JFH1 with adaptive mutations in E2 and p7 regions, by electroporation. JFH5a-Rluc-ad34 virus contains Renilla luciferase (Rluc), which is convenient for virus proliferation assay. The cell culture medium containing HCV was collected 3-5 days after the electroporation and then filtered through a […] pore size filter.
Step 3: Antiviral Activity Test Using Infectious HCV Particles
Huh 7.5.1 cells were inoculated with JFH5a-Rluc-ad34 virus and incubated for 4 hours. Four hours after the virus inoculation, the Huh7.5.1 cells infected with HCV were cultured in the medium containing the compound of examples serially diluted. Three days later, the cells were harvested and the intracellular luciferase activity was measured using Renilla luciferase assay system (Promega). Finally, the luciferase activity was normalized with those obtained from the negative control cells (mock-treated cells).

[3] = tested on: HCV replicon S52-Feo (genotype 3a); assay: Anti-HCV activity using HCV replicon S52-Feo (genotype 3a) in Huh 7.5.1 cells, luciferase readout; conditions: Hepatitis C virus, 72 h; Huh 7.5.1 cells with S52-Feo replicon, 3 days, firefly luciferase; read-out: HCV wt. GT-3a
[4] = tested on: HCV genotype 1b replicon with NS5A L31V mutation; assay: Transiently transfected assay of genotype 1b resistance mutant RNA L31V; conditions: Hepatitis C virus, Huh-7.5.1, 72 h, read-out: HCV Mutation L31V
Source text: (§1) <Experimental Example 3> Transiently Transfected Assay of Genotype 1b Resistance Mutant RNAs
(§2) Replicon genomes substituted with Y93H, L31V and L31V+Y93H (double mutant), the resistance mutants to Daclatasvir with mutations at the NS5A protein domain 1.
(§3) These HCV resistance mutant genomes were linearized with scal restriction enzyme, and then the mutated HCV RNA was synthesized through in vitro transcription. Huh 7.5.1 cells were individually electroporated with HCV RNA with resistant mutations and plated in a 12 well plate. After 4 hours, Huh7.5.1 cells were seeded in DMEM containing the compounds of examples serially diluted for 3 days. Three days later, the cells were harvested and the intracellular luciferase activity was measured. The luciferase activity was normalized with those obtained from the negative control cells (mock-treated cells).

[5] = tested on: HCV genotype 1b replicon with NS5A Y93H mutation; assay: Transiently transfected assay of genotype 1b resistance mutant RNA Y93H; conditions: Hepatitis C virus, Huh-7.5.1, 72 h, read-out: HCV Mutation Y93H
Source text: as §1, §2, §3

[6] = tested on: HCV genotype 1b replicon with NS5A L31V+Y93H (double mutant); assay: Transiently transfected assay of genotype 1b resistance mutant RNA L31V+Y93H (double mutant); conditions: Hepatitis C virus, Huh-7.5.1, 72 h, read-out: HCV Mutation L31V + Y93H
Source text: as §1, §2, §3

Row | Compound | EC50 [1] [nM] | EC50 [2] [nM] | EC50 [3] [nM] | EC50 [4] [nM] | EC50 [5] [nM] | EC50 [6] [nM]
1 | CCCCC1(CCCC)c2cc(NC(=O)[C@@H]3C[C@@H](OC(=O)C(C)C)CN3C(=O)[C@H](NC(=O)OC)c3ccccc3)ccc2-c2ccc(NC(=O)[C@@H]3C[C@@H](OC(=O)C(C)C)CN3C(=O)[C@H](NC(=O)OC)c3ccccc3)cc21 [Example 32, (3R,3′R,5S,5′S,52R)-5,5′-(9,9-dibutyl-9H-fluorene-2,7-diyl)bis(azanediyl)bis(oxomethylene)bis(1-((R)-2-(methoxycarbonylamino)-2-phenylacetyl)pyrrolidine-5,3-diyl) bis(2-methylpropanoate)] | 0.001 to 0.01 | 0.1 to 1 | 0.01 to 0.1 | 0.01 to 0.1 | 0.01 to 0.1 | 0.01 to 0.1
2 | CCCCCC1(CCCCC)c2cc(NC(=O)[C@@H]3CCCN3C(=O)[C@H](NC(=O)OC)c3ccccc3)ccc2-c2ccc(NC(=O)[C@@H]3CC4(CN3C(=O)[C@H](NC(=O)OC)c3ccccc3)OCCO4)cc21 [Example 12, methyl ((R)-2-((S)-2-((7-((S)-7-((R)-2-((methoxycarbonyl)amino)-2-phenylacetyl)-1,4-dioxa-7-azaspiro[4.4]nonane-8-carboxamido)-9,9-dipentyl-9H-fluorene-2-yl)carbamoyl)pyrrolidine-1-yl)-2-oxo-1-phenylethyl)carbamate] | 0.001 to 0.01 | 1 to 100 | 0.01 to 0.1 | 0.001 to 0.01 | 0.1 to 1 | 1 to 100
3 | CCCCC1(CCCC)c2cc(NC(=O)[C@@H]3C[C@H]4CCC[C@H]4N3C(=O)[C@H](NC(=O)OC)c3ccccc3)ccc2-c2ccc(NC(=O)[C@@H]3C[C@H]4CCC[C@H]4N3C(=O)[C@H](NC(=O)OC)c3ccccc3)cc21 [Example 22, dimethyl ((1R,1′R)-((2S,2′S,3aR,3a′R,6aR,6a′R)-(((9,9-dibutyl-9H-fluorene-2,7-diyl)bis(azanediyl))bis(carbonyl))bis(hexahydrocyclopenta[b]pyrrole-2,1(2H)-diyl))bis(2-oxo-1-phenylethane-2,1-diyl))dicarbamate] | 0.001 to 0.01 | 1 to 100 | 0.01 to 0.1 | 0.001 to 0.01 | 0.01 to 0.1 | > 100
4 | CCCCC1(CCCC)c2cc(NC(=O)[C@@H]3C[C@H](COC)CN3C(=O)[C@H](NC(=O)OC)c3ccccc3)ccc2-c2ccc(NC(=O)[C@@H]3C[C@H](COC)CN3C(=O)[C@H](NC(=O)OC)c3ccccc3)cc21 [Example 36, dimethyl (1R,1′R)-2,2′-((3S,3′S,5S,5′S)-5,5′-(9,9-dibutyl-9H-fluorene-2,7-diyl)bis(azanediyl)bis(oxomethylene)bis(3-(methoxymethyl)pyrrolidine-5,1-diyl))bis(2-oxo-1-phenylethane-2,1-diyl)dicarbamate] | 0.001 to 0.01 | 0.1 to 1 | 0.01 to 0.1 | 0.001 to 0.01 | 0.001 to 0.01 | 0.1 to 1
5 | CCCCCC1(CCCCC)c2cc(NC(=O)[C@@H]3CCCN3C(=O)[C@H](NC(=O)OC)c3ccccc3)ccc2-c2ccc(NC(=O)[C@@H]3CC(=O)CN3C(=O)[C@H](NC(=O)OC)c3ccccc3)cc21 [Example 19, methyl ((R)-2-((S)-2-((7-((S)-1-((R)-2-((methoxycarbonyl)amino)-2-phenylacetyl)pyrrolidine-2-carboxyamido)-9,9-dipentyl-9H-fluorene-2-yl)carbamoyl)-4-oxopyrrolidine-1-yl)-2-oxo-1-phenylethyl)carbamate] | 0.01 to 0.1 | 1 to 100 | 1 to 100 | 0.01 to 0.1 | 0.1 to 1 | 1 to 100
6 | CCCCCC1(CCCCC)c2cc(NC(=O)[C@@H]3CCCN3C(=O)[C@H](NC(=O)OC)c3ccccc3)ccc2-c2ccc(NC(=O)[C@@H]3CCCN3C(=O)[C@H](NC(=O)OC)c3ccccc3)cc21 [Example 11, dimethyl ((1R,1′R)-((2S,2′S)-(((9,9-dipentyl-9H-fluorene-2,7-diyl)bis(azanediyl))bis(carbonyl))bis(pyrrolidine-2,1-diyl))bis(2-oxo-1-phenylethane-2,1-diyl))dicarbamate] | 0.001 to 0.01 | 1 to 100 | 0.01 to 0.1 | 0.001 to 0.01 | 1 to 100 | 1 to 100
